# From patent US12679822B2, “Alkenyl pyrimidine compound, preparation method therefor, and application thereof” (Hongyun Biotech Co., Ltd., priority 2020, dated 2026)
# Tests used:
# Format in all cases: cell-based
# [1] = target: BaF3 cell lines stably transfected with kinase EGFR L858R/T790M/C797S (Homo sapiens, UniProt P00533, T790M/C797S/L858R, cells depend on it); test: Growth inhibition of BaF3 cell line stably transfected with kinase EGFR L858R/T790M/C797S (MTS); conditions: 48 h, read-out: growth inhibitory activity IC50, L858R/T790M/C797S
# BaF3 cell lines stably transfected with kinase EGFR L858R/T790M/C797S, sequence (P00533 whole entry T790M/C797S/L858R): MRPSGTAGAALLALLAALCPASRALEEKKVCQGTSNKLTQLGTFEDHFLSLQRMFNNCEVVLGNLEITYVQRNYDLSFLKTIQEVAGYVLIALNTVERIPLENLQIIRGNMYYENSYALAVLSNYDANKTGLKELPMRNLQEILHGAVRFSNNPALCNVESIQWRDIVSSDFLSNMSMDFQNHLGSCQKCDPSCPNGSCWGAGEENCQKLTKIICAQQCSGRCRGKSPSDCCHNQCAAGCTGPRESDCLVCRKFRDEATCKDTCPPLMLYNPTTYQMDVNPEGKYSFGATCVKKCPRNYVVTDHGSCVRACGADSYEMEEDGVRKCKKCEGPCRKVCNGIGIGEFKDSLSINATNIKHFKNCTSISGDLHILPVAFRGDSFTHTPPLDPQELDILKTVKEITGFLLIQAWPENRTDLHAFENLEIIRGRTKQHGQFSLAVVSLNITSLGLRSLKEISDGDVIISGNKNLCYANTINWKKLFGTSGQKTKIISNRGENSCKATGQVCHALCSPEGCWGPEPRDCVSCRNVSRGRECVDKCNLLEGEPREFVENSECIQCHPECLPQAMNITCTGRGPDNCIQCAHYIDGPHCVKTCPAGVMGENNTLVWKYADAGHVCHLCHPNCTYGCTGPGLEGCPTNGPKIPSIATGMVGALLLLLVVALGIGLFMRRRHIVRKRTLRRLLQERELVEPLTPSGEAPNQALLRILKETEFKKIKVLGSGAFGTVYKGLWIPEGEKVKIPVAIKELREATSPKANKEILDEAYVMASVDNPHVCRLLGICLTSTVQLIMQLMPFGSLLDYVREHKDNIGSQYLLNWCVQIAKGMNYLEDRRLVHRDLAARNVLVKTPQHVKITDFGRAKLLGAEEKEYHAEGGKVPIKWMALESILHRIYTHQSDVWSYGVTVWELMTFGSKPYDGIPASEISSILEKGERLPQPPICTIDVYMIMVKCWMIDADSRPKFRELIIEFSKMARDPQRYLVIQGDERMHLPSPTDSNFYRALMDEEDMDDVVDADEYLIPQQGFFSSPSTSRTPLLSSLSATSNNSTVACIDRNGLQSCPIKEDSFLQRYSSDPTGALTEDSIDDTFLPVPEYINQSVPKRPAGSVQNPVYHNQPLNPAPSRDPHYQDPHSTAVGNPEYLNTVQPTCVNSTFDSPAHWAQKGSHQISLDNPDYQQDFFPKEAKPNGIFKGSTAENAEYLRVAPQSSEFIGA
# Protocol: (§1) Biological Activity Assay: Growth Inhibitory Activity of Compounds on Cell Lines Stably Transfected with Kinase
# (§2) The activity of compounds against various mutants of kinase EGFR was evaluated by their effect of inhibiting growth of BaF3 cell lines stably transfected with kinase. The specific test method was given as follows:
# (§3) 1) Culture medium: DMEM (Dulbecco's modified eagle medium) or RPMI 1640 (containing 10% fetal bovine serum, 100 μg/mL ampicillin, 100 μg/mL streptomycin).
# (§4) 2) Reagent: MTS reaction solution (containing 2 mg/mL of MTS [3-(4,5-di methylthiazol-2-yl)-5-(3-carboxymethoxyphenyl)-2-(4-sulfophenyl)-2H-tetrazolium, inner Salt]; 100 μg/mL of PES (phenazine […])).
# (§5) 3) Compound test: cells were incubated into a 96-well culture plate, the volume of cytosol was 90 μL, and then 10 μL of the compound at each gradient concentration was added. That is, the highest concentration was 10 μM, which was diluted stepwise by ⅓, and 8 concentration points were set in total; 0.1% DMSO (dimethyl sulfoxide) was contained in the system. The cell plate with uniformly mixed compound was cultured in a cell culture incubator (37° C.; 5% […]) for 48 h, then 20 μL of MTS reaction solution was added, uniformly mixed and incubated in the cell culture incubator (37° C.; 5% CO2) for 1-4 h; OD values at 490 nm were measured by a microplate reader (VARIOSKAN FLASH, Thermo). Two parallels were set in each group of experiments, with 0.1% (a final concentration) DMSO as a negative control, and a culture medium without cells and compounds as a blank control. The cell growth inhibition rate was calculated by the following formula: Cell growth inhibition rate %=1−(ODexperimental group−ODblank group)/(ODnegative group−ODblank group)×100%.
# (§6) 4) IC50 calculation: The semi-inhibitory concentration of the compounds acting on cells was calculated using GradPad Prism 5 software according to the measured cell growth inhibition rate.
# [2] = target: BaF3 cell lines stably transfected with kinase EGFR Del/T790M/C797S (Homo sapiens, UniProt P00533, T790M/C797S, cells depend on it, form not given); test: Growth inhibition of BaF3 cell line stably transfected with kinase EGFR Del/T790M/C797S (MTS); conditions: 48 h, read-out: growth inhibitory activity IC50, Del/T790M/C797S
# Protocol: as §1, §2, §3, §4, §5, §6
# [3] = target: BaF3 cell lines stably transfected with kinase EGFR L858R (Homo sapiens, UniProt P00533, L858R, cells depend on it); test: Growth inhibition of BaF3 cell line stably transfected with kinase EGFR L858R (MTS); conditions: 48 h, read-out: growth inhibitory activity IC50, L858R
# BaF3 cell lines stably transfected with kinase EGFR L858R, sequence (P00533 whole entry L858R): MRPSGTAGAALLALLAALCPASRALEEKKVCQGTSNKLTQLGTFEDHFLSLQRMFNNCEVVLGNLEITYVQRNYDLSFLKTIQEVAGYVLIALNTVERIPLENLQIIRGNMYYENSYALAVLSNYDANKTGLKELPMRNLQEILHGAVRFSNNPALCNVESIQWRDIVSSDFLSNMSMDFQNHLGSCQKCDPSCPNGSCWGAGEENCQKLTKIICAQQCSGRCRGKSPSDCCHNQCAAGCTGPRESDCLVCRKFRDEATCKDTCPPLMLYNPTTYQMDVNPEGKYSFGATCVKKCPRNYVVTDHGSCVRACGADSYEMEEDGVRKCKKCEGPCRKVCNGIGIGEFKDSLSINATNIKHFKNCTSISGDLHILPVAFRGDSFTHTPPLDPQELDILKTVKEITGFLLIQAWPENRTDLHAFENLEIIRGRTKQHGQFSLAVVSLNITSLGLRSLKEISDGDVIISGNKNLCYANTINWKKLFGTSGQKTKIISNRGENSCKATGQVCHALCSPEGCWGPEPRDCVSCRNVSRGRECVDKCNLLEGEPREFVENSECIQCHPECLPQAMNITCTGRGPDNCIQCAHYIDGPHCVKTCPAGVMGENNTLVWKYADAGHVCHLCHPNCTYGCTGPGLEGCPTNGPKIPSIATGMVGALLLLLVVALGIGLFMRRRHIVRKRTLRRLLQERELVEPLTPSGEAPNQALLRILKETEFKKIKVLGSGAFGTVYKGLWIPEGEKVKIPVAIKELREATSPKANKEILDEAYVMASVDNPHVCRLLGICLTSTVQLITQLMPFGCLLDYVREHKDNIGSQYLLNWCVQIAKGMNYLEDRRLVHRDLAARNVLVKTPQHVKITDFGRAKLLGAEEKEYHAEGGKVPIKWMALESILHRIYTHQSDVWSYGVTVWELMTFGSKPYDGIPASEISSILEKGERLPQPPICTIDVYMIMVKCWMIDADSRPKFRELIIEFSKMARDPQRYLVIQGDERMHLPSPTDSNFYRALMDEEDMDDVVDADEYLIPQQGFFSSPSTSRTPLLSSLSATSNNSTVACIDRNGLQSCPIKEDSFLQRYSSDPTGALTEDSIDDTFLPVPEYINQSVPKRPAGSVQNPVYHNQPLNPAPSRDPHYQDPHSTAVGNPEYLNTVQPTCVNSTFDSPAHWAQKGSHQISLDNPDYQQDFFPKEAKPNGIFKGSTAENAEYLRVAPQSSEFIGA
# Protocol: as §1, §2, §3, §4, §5, §6
# [4] = target: BaF3 cell lines stably transfected with kinase EGFR L858R/T790M (Homo sapiens, UniProt P00533, T790M/L858R, cells depend on it); test: Growth inhibition of BaF3 cell line stably transfected with kinase EGFR L858R/T790M (MTS); conditions: 48 h, read-out: growth inhibitory activity IC50, L858R/T790M
# BaF3 cell lines stably transfected with kinase EGFR L858R/T790M, sequence (P00533 whole entry T790M/L858R): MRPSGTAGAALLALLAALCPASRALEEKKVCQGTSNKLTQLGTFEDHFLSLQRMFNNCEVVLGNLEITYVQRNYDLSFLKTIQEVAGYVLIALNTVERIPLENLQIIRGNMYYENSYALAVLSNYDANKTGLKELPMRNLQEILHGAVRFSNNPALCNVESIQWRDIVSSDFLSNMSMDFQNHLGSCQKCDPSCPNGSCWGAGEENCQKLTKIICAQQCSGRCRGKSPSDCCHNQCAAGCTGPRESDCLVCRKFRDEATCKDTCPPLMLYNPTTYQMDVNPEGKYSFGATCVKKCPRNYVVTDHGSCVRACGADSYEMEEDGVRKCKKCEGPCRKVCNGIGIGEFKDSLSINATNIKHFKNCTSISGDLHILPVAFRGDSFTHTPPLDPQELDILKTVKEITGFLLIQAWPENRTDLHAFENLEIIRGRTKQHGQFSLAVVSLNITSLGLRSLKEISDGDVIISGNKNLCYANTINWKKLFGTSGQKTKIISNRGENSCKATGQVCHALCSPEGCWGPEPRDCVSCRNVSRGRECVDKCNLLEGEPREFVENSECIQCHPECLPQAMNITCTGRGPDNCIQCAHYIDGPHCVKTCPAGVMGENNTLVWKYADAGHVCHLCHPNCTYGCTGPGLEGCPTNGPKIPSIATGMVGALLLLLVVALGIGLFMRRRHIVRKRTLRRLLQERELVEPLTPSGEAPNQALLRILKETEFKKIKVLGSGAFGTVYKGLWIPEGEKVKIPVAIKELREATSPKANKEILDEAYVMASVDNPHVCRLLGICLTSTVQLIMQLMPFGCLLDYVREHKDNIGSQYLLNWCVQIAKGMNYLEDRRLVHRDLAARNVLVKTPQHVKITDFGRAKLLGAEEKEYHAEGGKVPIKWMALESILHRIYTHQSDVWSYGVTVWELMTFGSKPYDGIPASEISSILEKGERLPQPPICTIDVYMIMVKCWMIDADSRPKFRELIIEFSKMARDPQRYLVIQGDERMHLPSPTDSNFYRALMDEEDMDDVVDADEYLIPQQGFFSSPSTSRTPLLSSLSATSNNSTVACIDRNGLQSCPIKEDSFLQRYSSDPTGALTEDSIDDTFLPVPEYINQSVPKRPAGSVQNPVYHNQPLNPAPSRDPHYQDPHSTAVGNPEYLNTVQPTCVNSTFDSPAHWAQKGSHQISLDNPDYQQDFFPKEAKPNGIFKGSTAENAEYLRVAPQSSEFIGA
# Protocol: as §1, §2, §3, §4, §5, §6
# [5] = target: BaF3 cell lines stably transfected with kinase EGFR Del/T790M (Homo sapiens, UniProt P00533, T790M, cells depend on it, form not given); test: Growth inhibition of BaF3 cell line stably transfected with kinase EGFR Del/T790M (MTS); conditions: 48 h, read-out: growth inhibitory activity IC50, Del/T790M
# BaF3 cell lines stably transfected with kinase EGFR Del/T790M, sequence (P00533 with tags, fused parts or gaps DEL746-750/T790M, form open): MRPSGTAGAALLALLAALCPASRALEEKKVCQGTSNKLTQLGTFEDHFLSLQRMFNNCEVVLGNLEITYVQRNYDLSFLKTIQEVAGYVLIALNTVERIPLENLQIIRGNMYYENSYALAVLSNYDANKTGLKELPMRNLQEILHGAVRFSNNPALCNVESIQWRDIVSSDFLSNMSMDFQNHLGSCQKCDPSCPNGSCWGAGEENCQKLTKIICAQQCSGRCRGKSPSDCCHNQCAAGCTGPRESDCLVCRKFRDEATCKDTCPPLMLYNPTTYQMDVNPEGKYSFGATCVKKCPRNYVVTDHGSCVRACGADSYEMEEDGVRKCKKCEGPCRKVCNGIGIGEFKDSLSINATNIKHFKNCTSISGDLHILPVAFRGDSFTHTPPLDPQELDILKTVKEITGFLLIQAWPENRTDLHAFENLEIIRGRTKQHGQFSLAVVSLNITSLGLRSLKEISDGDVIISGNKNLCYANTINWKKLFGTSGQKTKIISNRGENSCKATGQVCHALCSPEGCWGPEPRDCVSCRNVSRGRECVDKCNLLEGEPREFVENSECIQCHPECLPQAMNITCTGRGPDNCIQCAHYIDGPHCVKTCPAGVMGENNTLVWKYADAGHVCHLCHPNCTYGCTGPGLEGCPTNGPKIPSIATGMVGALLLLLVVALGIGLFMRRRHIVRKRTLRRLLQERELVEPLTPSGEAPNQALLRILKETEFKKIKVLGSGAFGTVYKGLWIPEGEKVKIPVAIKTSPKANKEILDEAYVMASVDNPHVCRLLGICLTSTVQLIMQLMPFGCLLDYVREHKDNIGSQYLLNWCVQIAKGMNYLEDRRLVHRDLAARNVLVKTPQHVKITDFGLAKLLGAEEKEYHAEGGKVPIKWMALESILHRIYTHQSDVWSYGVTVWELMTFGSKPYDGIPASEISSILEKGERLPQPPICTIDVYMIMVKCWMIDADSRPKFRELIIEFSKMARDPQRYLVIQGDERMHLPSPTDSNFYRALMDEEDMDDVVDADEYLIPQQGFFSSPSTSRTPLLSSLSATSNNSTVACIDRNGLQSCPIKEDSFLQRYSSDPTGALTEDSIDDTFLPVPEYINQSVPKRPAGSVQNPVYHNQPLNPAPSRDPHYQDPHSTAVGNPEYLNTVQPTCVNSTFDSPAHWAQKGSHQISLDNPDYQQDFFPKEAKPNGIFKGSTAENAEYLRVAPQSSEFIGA
# Protocol: as §1, §2, §3, §4, §5, §6
# [6] = target: BaF3 cell lines stably transfected with kinase EGFR Del (Homo sapiens, UniProt P00533, cells depend on it, form not given); test: Growth inhibition of BaF3 cell line stably transfected with kinase EGFR Del (MTS); conditions: 48 h, read-out: growth inhibitory activity IC50, Del
# Protocol: as §1, §2, §3, §4, §5, §6
Compound,GI50 [1],GI50 [2],GI50 [3],GI50 [4],GI50 [5],GI50 [6]
C=Cc1cnc(Nc2cc(CC)c(N3CCC(N4CCN(C)CC4)CC3)cc2OC)nc1Nc1ccc2nccnc2c1S(C)(=O)=O [III-1],500 to 2500 nM,500 to 2500 nM,500 to 2500 nM,50 to 500 nM,50 to 500 nM,50 to 500 nM
C=Cc1cnc(Nc2cc(CC)c(N3CCC(N4CCN(C)CC4)CC3)cc2OC(F)(F)F)nc1Nc1ccc2nccnc2c1NS(C)(=O)=O [II-34],50 to 500 nM,50 to 500 nM,50 to 500 nM,50 to 500 nM,50 to 500 nM,50 to 500 nM
C=Cc1cnc(Nc2cc(CC)c(N3CCC(N4CCN(C)CC4)CC3)cc2OC(F)(F)F)nc1Nc1ccc2nccnc2c1S(C)(=O)=O [III-5],500 to 2500 nM,500 to 2500 nM,500 to 2500 nM,50 to 500 nM,500 to 2500 nM,500 to 2500 nM
C=Cc1cnc(Nc2cc3c(cc2F)CCN(C)C3)nc1Nc1ccc2nccnc2c1N(C)S(C)(=O)=O [II-74],50 to 500 nM,50 to 500 nM,≤ 50 nM,50 to 500 nM,50 to 500 nM,50 to 500 nM
C=Cc1cnc(Nc2cc(C(C)C)c(N3CCC(N4CCN(C)CC4)CC3)cc2OC)nc1Nc1ccc2nccnc2c1S(=O)(=O)NC [IV-6],500 to 2500 nM,500 to 2500 nM,500 to 2500 nM,50 to 500 nM,50 to 500 nM,500 to 2500 nM
C=Cc1cnc(Nc2cc(CC)c(N3CCC(N4CCN(C)CC4)CC3)cc2OC)nc1Nc1ccc2nccnc2c1N(C1CC1)S(C)(=O)=O [II-14],≤ 50 nM,50 to 500 nM,≤ 50 nM,≤ 50 nM,≤ 50 nM,≤ 50 nM
C=Cc1cnc(Nc2cc(CC3CC3)c(N3CCC(N4CCN(C)CC4)CC3)cc2OC)nc1Nc1ccc2nccnc2c1S(=O)(=O)NC [IV-8],50 to 500 nM,50 to 500 nM,500 to 2500 nM,50 to 500 nM,50 to 500 nM,50 to 500 nM
C=Cc1cnc(Nc2cc(CC)c(N3CCC(N4CCN(C)CC4)CC3)cc2OC)nc1Nc1ccc2nccnc2c1S(=O)(=O)NC [IV-3],50 to 500 nM,50 to 500 nM,50 to 500 nM,50 to 500 nM,50 to 500 nM,50 to 500 nM
C=Cc1cnc(Nc2cc(CC)c(N3CCC(N4CCN(C)CC4)CC3)nc2OC)nc1Nc1ccc2nccnc2c1S(C)(=O)=O [III-10],500 to 2500 nM,500 to 2500 nM,500 to 2500 nM,50 to 500 nM,500 to 2500 nM,500 to 2500 nM
C=Cc1cnc(Nc2ccc3c(c2)C(C)CN(C)CC3)nc1Nc1ccc2nccnc2c1N(C)S(C)(=O)=O (stereo not drawn) [II-78],≤ 50 nM,50 to 500 nM,≤ 50 nM,≤ 50 nM,50 to 500 nM,≤ 50 nM
C=Cc1cnc(Nc2cn(CC)nc2C)nc1Nc1ccc2nccnc2c1N(C)S(C)(=O)=O [II-68],50 to 500 nM,50 to 500 nM,50 to 500 nM,500 to 2500 nM,500 to 2500 nM,50 to 500 nM
C=Cc1cnc(Nc2cc(CC)c(N3CCC(N(C)C)CC3)cc2OC)nc1Nc1ccc2nccnc2c1NS(C)(=O)=O [II-39],≤ 50 nM,≤ 50 nM,≤ 50 nM,≤ 50 nM,≤ 50 nM,≤ 50 nM
C=Cc1cnc(Nc2cc(CC)c(N3CCN(C)CC3)cc2OC)nc1Nc1ccc2nccnc2c1N(C)S(C)(=O)=O [II-4],≤ 50 nM,≤ 50 nM,≤ 50 nM,≤ 50 nM,≤ 50 nM,≤ 50 nM
C=Cc1cnc(Nc2ccc(N3CCC(N4CCN(C)CC4)CC3)c(F)c2F)nc1Nc1ccc2nccnc2c1NS(C)(=O)=O [II-45],500 to 2500 nM,500 to 2500 nM,50 to 500 nM,50 to 500 nM,50 to 500 nM,50 to 500 nM
C=Cc1cnc(Nc2cc(CC)c(N3CCC(N4CCN(C)CC4)CC3)cc2OC)nc1Nc1ccc2nccnc2c1N(CC)S(C)(=O)=O [II-12],≤ 50 nM,≤ 50 nM,≤ 50 nM,≤ 50 nM,≤ 50 nM,≤ 50 nM
